Experimental data reported in patent publication US20240024273A1, “TOPICAL ADMINISTRATION OF 2-(DIETHYLAMINO)ETHYL 2-(4-ISOBUTYLPHENYL)PROPRIONATE FOR TREATMENT OF DISEASES” (TECHFIELDS PHARMA CO., LTD., priority 2020, published 2024).

What was measured:
Type in all cases: in vivo, human
[1] = test system: osteoarthritis of the knee; assay: Second Phase 2 study: WOMAC (VAS) pain subscale score
Source text: (§1) This is a Phase 2, multicenter, randomized, double blind (within dose), Ibuprofen-placebo controlled, parallel group, dose range finding study to evaluate the efficacy, safety, and PK of 2-(diethylamino)ethyl 2-(4-isobutylphenyl)propionate spray in adult subjects with clinically symptomatic OA of the knee. For subjects with bilateral knee pain, both knees will be treated, but the most symptomatic knee (ie, the most painful knee as measured by the Western Ontario and McMaster University Osteoarthritis Index [WOMAC® 3.1] pain subscale score at Screening) will be designated as the target knee for efficacy analyses. For subjects with unilateral knee pain, only the symptomatic (target) knee will be treated.
(§2) The VAS version of the WOMAC will be used for the Primary and Secondary Efficacy Endpoints. Efficacy endpoints will be assessed at Screening and Baseline (Day 1) and at the Week 2, Week 4, Week 8, and Week 12/EOS visits.
The Primary Efficacy Endpoint is the change from Baseline in the WOMAC (VAS) pain subscale score for the target knee at […] of treatment.
(§3) 4.9.2. Secondary Efficacy Endpoints: • 1. Change from Baseline in the WOMAC (VAS) pain subscale score for the target knee at 2, 8, and 12 weeks of treatment; • 2. Change from Baseline in the WOMAC (VAS) stiffness subscale scores for the target knee and WOMAC (VAS) functional ability subscale scores at 2, 4, 8, and 12 weeks of treatment; • 3. Change from Baseline in the overall WOMAC (VAS) score at 2, 4, 8, and 12 weeks of treatment; • 4. Subject's global assessment of disease status of the target knee at 2, 4, 8, and 12 weeks of treatment; • 5. Subject's global assessment of response to therapy of the target knee at 2, 4, 8, and 12 weeks of treatment; • 6. Amount of rescue medication (acetaminophen) consumed per day for target knee pain.
The Primary Efficacy Endpoint is change from Baseline in the WOMAC (VAS) pain subscale score for the target knee at 4 weeks of treatment, and will be analyzed using an analysis of covariance (ANCOVA). Treatment will be included as a fixed class effect and WOMAC Baseline pain subscale score as covariates. The primary comparisons of interest will be the difference between active Group A (4.375 mg 2-(diethylamino)ethyl 2-(4-isobutylphenyl)propionate/knee) and combined placebo, active Group B (8.75 mg 2-(diethylamino)ethyl 2-(4-isobutylphenyl)propionate/knee) and combined placebo, and active Group C (17.5 mg 2-(diethylamino)ethyl 2-(4-isobutylphenyl)propionate/knee) and combined placebo.

[2] = test system: osteoarthritis of the knee; assay: Second Phase 2 study: Investigator's global assessment of disease status (IGADS); settings: Week 12
[3] = test system: osteoarthritis of the knee; assay: Second Phase 2 study: WOMAC overall score
Source text: as §1, §2, §3
The Secondary Efficacy Endpoints, change from Baseline in the WOMAC subscale scores for pain, stiffness, and functional ability, and overall WOMAC score at 2, 4, 8, and 12 weeks of treatment, will be analyzed using the same methods as for the Primary Efficacy Endpoint.

[4] = test system: osteoarthritis of the knee; assay: Second Phase 2 study: Subject's Global Assessment of Disease Status (SGADS)
Source text: as §3

[5] = Baseline, oral, 3 × 400 mg (n = 20), first 130 subjects
[6] = Week 12, oral, 3 × 400 mg (n = 20), first 130 subjects
[7] = all subjects, Oral Ibuprofen 3 × 400 mg, n = 48, Week 12
[8] = all subjects, Oral Ibuprofen 3 × 400 mg, n = 48 vs. Placebo n = 48
[9] = oral 3×400 mg, first 130 subjects
[10] = oral, 3 x 400 mg (n = 20), first 130 subjects
[11] = all subjects, Oral Ibuprofen 3 × 400 mg, n = 48

## CC(C)Cc1ccc(C(C)C(=O)O)cc1 (centres unmarked) [Ibuprofen, 2-(4-isobutylphenyl)propionic acid, reference compound]
[1]; [5]
  WOMAC Pain Subscale Scores, Baseline (LS Mean): 67.0 mm
[1]; [6]
  WOMAC Pain Subscale Scores, % of improvement from Placebo: 0.9%
  WOMAC Pain Subscale Scores, % of improvement from baseline: −32.2%
  WOMAC Pain Subscale Scores, Changes from Baseline (LS Mean): −21.6 mm
  WOMAC Pain Subscale Scores, Different from placebo (LS Mean): −0.5 mm
  WOMAC Pain Subscale Scores, Week 12 (LS Mean): 45.4 mm
[1]; [7]
  WOMAC Pain Subscale Scores, % of improvement from Placebo: −4.5%
  WOMAC Pain Subscale Scores, % of improvement from baseline: −41.2%
  WOMAC Pain Subscale Scores, Changes from Baseline (LS Mean): −25.4 mm
  WOMAC Pain Subscale Scores, Week 12 (LS Mean): 36.3 mm
[1]; [8]
  WOMAC Pain, difference vs. Placebo: −2.8 mm
[1]; [9]
  WOMAC pain, difference from placebo: −0.5 mm
[2]; [10]
  IGADS: Good and Very good: 40.0%
  IGADS: Poor and Very Poor: 15.0%
  IGADS: fair: 45.0%
[2]; [11]
  IGADS, Good and Very good: 39.6%
  IGADS, Poor and Very Poor: 4.1%
[3]; [5]
  WOMAC Overall Scores, Baseline (LS Mean): 65.0 mm
[3]; [6]
  WOMAC Overall Scores, % of improvement from baseline: −33.1%
  WOMAC Overall Scores, % of improvement from placebo: −2.9%
  WOMAC Overall Scores, Changes from Baseline (LS Mean): −21.5 mm
  WOMAC Overall Scores, Different from placebo (LS Mean): −3.1 mm
  WOMAC Overall Scores, Week 12 (LS Mean): 43.5 mm
[3]; [7]
  WOMAC Overall Scores, % of improvement from baseline: −41.3%
  WOMAC Overall Scores, % of improvement from placebo: −5.1%
  WOMAC Overall Scores, Changes from Baseline (LS Mean): −24.9 mm
  WOMAC Overall Scores, Week 12 (LS Mean): 35.4 mm
[3]; [8]
  WOMAC Total, difference vs. Placebo: −3.6 mm
[3]; [9]
  WOMAC overall, difference from placebo: −3.0 mm
[4]; [5]
  Subject’s Global Assessment of Disease Status Scores, Baseline (LS Mean): 75.2 mm
[4]; [6]
  Subject’s Global Assessment of Disease Status Scores, % of improvement from baseline: −38.4%
  Subject’s Global Assessment of Disease Status Scores, % of improvement from placebo: −2.0%
  Subject’s Global Assessment of Disease Status Scores, Changes from Baseline (LS Mean): −28.9 mm
  Subject’s Global Assessment of Disease Status Scores, Different from placebo (LS Mean): −4.4 mm
  Subject’s Global Assessment of Disease Status Scores, Week 12 (LS Mean): 46.3 mm
[4]; [7]
  Subject's Global Assessment of Disease Status Scores, % of improvement from Placebo: −0.7%
  Subject's Global Assessment of Disease Status Scores, % of improvement from baseline: −46.6%
  Subject's Global Assessment of Disease Status Scores, Changes from Baseline (LS Mean): −33.3 mm
  Subject's Global Assessment of Disease Status Scores, Week 12 (LS Mean): 38.1 mm
[4]; [8]
  SGADS, difference vs. Placebo: −2.9 mm
[4]; [9]
  SGADS, difference from placebo: −4.2 mm
